Assay results: article PMC12207590, “Substrate Specificity of the Organic Cation Transporters MATE1 and MATE2K and Functional Overlap with OCT1 and OCT2” (Journal of Medicinal Chemistry, 2025)
Like-named read-outs stand apart in the source and are kept apart here. Where a SMILES comes first, the peptide text is derived from it.

How the values were obtained:
MATE1 = biological target: T1, MATE1 (Homo sapiens, UniProt Q96FL8); assay: Uptake ratio in MATE1-overexpressing HEK293 cells vs empty vector (2.5 μM, 1 min, HPLC-MS/MS); assay type: cell-based
T1 sequence (Q96FL8 1-570): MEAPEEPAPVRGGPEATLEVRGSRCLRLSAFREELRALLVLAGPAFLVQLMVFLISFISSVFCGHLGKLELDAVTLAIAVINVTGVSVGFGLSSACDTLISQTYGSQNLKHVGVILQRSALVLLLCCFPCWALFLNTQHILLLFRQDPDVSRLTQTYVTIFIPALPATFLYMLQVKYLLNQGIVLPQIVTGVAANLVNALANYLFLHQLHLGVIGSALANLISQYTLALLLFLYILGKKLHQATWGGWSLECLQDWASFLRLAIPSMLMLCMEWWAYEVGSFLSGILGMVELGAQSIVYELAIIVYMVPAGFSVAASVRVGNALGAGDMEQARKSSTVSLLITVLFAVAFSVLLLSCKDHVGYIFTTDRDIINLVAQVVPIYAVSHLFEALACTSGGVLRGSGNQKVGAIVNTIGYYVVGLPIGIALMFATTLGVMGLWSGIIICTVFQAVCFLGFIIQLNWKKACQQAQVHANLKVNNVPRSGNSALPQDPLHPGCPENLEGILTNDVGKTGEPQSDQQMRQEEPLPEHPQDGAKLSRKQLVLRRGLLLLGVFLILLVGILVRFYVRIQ

MATE2K = MATE2K (Homo sapiens, UniProt Q86VL8); assay: Uptake ratio in MATE2K-overexpressing HEK293 cells vs empty vector (2.5 μM, 1 min, HPLC-MS/MS); assay type: cell-based
MATE2K, sequence (Q86VL8 1-566 isoform Q86VL8-3): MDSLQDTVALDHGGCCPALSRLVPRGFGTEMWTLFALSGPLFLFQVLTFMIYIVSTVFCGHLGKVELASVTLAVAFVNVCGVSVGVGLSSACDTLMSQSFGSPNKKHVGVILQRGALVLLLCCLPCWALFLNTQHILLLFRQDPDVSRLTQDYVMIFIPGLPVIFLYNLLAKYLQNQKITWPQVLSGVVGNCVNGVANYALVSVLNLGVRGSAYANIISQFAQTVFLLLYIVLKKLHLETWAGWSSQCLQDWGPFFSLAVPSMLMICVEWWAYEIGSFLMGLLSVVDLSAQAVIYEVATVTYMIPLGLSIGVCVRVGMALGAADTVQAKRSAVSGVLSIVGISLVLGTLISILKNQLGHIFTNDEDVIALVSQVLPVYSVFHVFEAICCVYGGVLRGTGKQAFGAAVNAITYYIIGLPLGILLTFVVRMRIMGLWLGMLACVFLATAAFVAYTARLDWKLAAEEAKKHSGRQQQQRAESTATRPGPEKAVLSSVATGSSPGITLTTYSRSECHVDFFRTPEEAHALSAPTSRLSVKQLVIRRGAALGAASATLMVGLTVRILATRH

hCMEC [1] = assay: TS MDAI hCMEC (Table S2); assay type: cell-based, human; set-up: scale not given here
hCMEC [2] = assay: TS DPH hCMEC (Table S2); assay type: cell-based, human; set-up: scale not given here
[3] = fold uptake over empty vector, 2.5 μM, 1 min
[4] = uptake ratio MATE1-overexpressing vs empty-vector HEK293 cells, 2.5 μM, 1 min, mean
[5] = uptake ratio MATE2K-overexpressing vs empty-vector HEK293 cells, 2.5 μM, 1 min, mean
[6] = mean ratio of uptake in MATE1-overexpressing HEK293 cells vs empty vector, 2.5 μM, 1 min
[7] = mean ratio of uptake in MATE2K-overexpressing HEK293 cells vs empty vector, 2.5 μM, 1 min

Compound | MATE1 ratio (MATE1; [3]) | MATE2K ratio (MATE2K; [3]) | TS MDAI hCMEC (hCMEC [1]; Table S2) | TS DPH hCMEC (hCMEC [2]; Table S2) | further results
Cn1c(=O)[nH]c2ncn(C)c2c1=O [Paraxanthine] | 1.00 | 0.90 | 0.93 | 1.13 | 
COc1ccc2c3c1O[C@H]1C[C@@H](O)C=C[C@@]31CCN(C)C2 [Galantamine] |  |  |  | 0.80 | MATE1 ratio (MATE1): 1.18; MATE2K ratio (MATE2K): 1.23; TS MDAI hCMEC (hCMEC [1]): 0.98
CNCC1CCCCC1(O)c1cccc(OC)c1 (centres unmarked) [N-Desmethyltramadol] |  |  |  |  | MATE1 ratio (MATE1): 1.12; MATE2K ratio (MATE2K): 1.19; TS MDAI hCMEC (hCMEC [1]): 0.64; TS DPH hCMEC (hCMEC [2]): 0.37
NCCc1ccc(Oc2ccc(O)cc2)c(I)c1 [3-Iodothyronamine (T1AM), 3-Iodothyronamine] |  |  |  |  | MATE1 (uptake ratio) (MATE1): 1.36; MATE1 ratio (MATE1): 1.36; MATE2 (uptake ratio) (MATE2K): 1.07; MATE2K ratio (MATE2K): 1.07; TS MDAI hCMEC (hCMEC [1]): 1.11; TS DPH hCMEC (hCMEC [2]): 0.86
CN1C2CCCC1CC(NC(=O)c1nn(C)c3ccccc13)C2 (centres unmarked) [Granisetron] | 1.22 | 1.25 | 0.28 | 0.43 | 
OCCOCCN1CCN(C2=Nc3ccccc3Sc3ccccc32)CC1 [Quetiapine] | 1.10 | 1.28 | 0.45 | 0.49 | MATE1 (MATE1; [4]): 1.1; MATE2 (MATE2K; [5]): 1.28
CN(C)CC(c1ccc(O)cc1)C1(O)CCCCC1 (centres unmarked) [Desvenlafaxine] | 1.12 | 1.09 | 0.61 | 0.49 | 
N[C@@H]1CON=C1O [Cycloserine (D), Cycloserine] | 1.19 | 1.14 | 0.79 | 1.25 | 
CCCC(=O)Nc1ccc(OCC(O)CNC(C)C)c(C(C)=O)c1 (centres unmarked) [Acebutolol] | 12.97 | 9.08 | 0.88 | 0.84 | MATE1 (uptake ratio) (MATE1; [6]): 12.97; MATE2 (uptake ratio) (MATE2K; [7]): 9.08
COC(=O)[C@H](Cc1ccccc1)NC(=O)[C@@H](N)CC(=O)O [Aspartame] (HELM PEPTIDE1{D.F.[CO[*:1]]}$$$$V2.0) | 1.26 | 1.07 | 1.65 | 1.77 | MATE1 (uptake ratio) (MATE1; [6]): 1.26; MATE2 (uptake ratio) (MATE2K; [7]): 1.07
C[N+](C)(C)CC(=O)O [Betaine] | 0.80 | 1.07 | 1.09 | 0.98 | MATE1 (uptake ratio) (MATE1; [6]): 0.8; MATE2 (uptake ratio) (MATE2K; [7]): 1.07
CC[C@@H](CO)NCCN[C@@H](CC)CO [Ethambutol] | 14.14 | 2.78 | 0.95 | 0.98 | MATE1 ratio in this study (MATE1; Table S1, 2.5 μM, 1 min): 14.14; MATE1 ratio (MATE1; fold uptake over empty vector, 2.5 μM, 1 min, listed as ethambutol): 14; MATE2K ratio in this study (MATE2K; Table S1, 2.5 μM, 1 min): 2.78
Cc1nccn1CC1CCc2c(c3ccccc3n2C)C1=O (centres unmarked) [Ondansetron] | 1.19 | 1.24 | 0.22 | 0.22 | 
CNc1c(C)n(C)n(-c2ccccc2)c1=O [4-Methylaminoantipyrine] | 0.21 | 0.83 | 1.26 | 1.20 | MATE1 (uptake ratio) (MATE1; [6]): 0.21; MATE2 (uptake ratio) (MATE2K; [7]): 0.83
CN(C)CCC=C1c2ccccc2COc2ccccc21 [Doxepin] | 1.34 | 1.32 | 0.10 | 0.13 | 
C=CCN1C[C@H](C(=O)N(CCCN(C)C)C(=O)NCC)C[C@@H]2c3cccc4[nH]cc(c34)C[C@H]21 [Cabergoline] | 1.20 | 1.13 | 0.44 | 0.38 | MATE1 (uptake ratio) (MATE1; [6]): 1.2; MATE2 (uptake ratio) (MATE2K; [7]): 1.13
CCCOC(C(=O)OC1CCN(C)CC1)(c1ccccc1)c1ccccc1 [Propiverine] | 1.20 | 1.07 | 0.44 | 0.33 | MATE1 (MATE1; [4]): 1.2; MATE2 (MATE2K; [5]): 1.07
CNCC[C@@H](Oc1ccccc1C)c1ccccc1 [Atomoxetine] | 1.12 | 1.18 | 0.25 | 0.23 | MATE1 (uptake ratio) (MATE1; [6]): 1.12; MATE2 (uptake ratio) (MATE2K; [7]): 1.18
COCCOC(=O)C1=C(C)NC(C)=C(C(=O)OC(C)C)C1c1cccc([N+](=O)[O-])c1 (centres unmarked) [Nimodipine] | 1.33 | 1.20 | 1.25 | 1.28 | 

Compound | MATE1 ratio (MATE1; [3]) | MATE2K ratio (MATE2K; [3]) | TS MDAI hCMEC (hCMEC [1]; Table S2) | TS DPH hCMEC (hCMEC [2]; Table S2) | further results
CC(C)NCC(O)COc1cccc2ccccc12 (centres unmarked) [Propranolol] |  |  | 0.08 | 0.12 | MATE2 (MATE2K; [5]): 1.14
CC(C)(C)NCC(O)c1ccc(O)c(CO)n1 (centres unmarked) [Pirbuterol] | 12.66 | 6.00 | 1.31 | 0.95 | 
C=CCN1CC[C@]23c4c5ccc(O)c4O[C@H]2C(=O)CC[C@@]3(O)[C@H]1C5 [Naloxone] | 1.36 | 1.29 | 0.44 | 0.78 | 
COc1ccc2c(c1)N(C[C@H](C)CN(C)C)c1ccccc1S2 [Levomepromazine] | 1.21 | 1.19 | 0.33 | 0.31 | 
NC(=O)C1(N2CCCCC2)CCN(CCCC(=O)c2ccc(F)cc2)CC1 [Pipamperone] | 1.35 | 1.32 | 0.23 | 0.42 | 
Cc1nc2n(c(=O)c1CCN1CCC(c3noc4cc(F)ccc34)CC1)CCCC2 [Risperidone] |  |  |  |  | MATE1 (MATE1): 1.07; MATE1 ratio (MATE1): 1.07; MATE2 (MATE2K): 1.37; MATE2K ratio (MATE2K): 1.37; TS MDAI hCMEC (hCMEC [1]): 0.46; TS DPH hCMEC (hCMEC [2]): 0.53
CC(Cc1ccc(O)cc1)NCC(O)c1cc(O)cc(O)c1 (centres unmarked) [Fenoterol] |  |  |  |  | MATE1 ratio (MATE1): 14.98; MATE1 ratio in this study (MATE1): 14.98; MATE2K ratio (MATE2K): 5.46; MATE2K ratio in this study (MATE2K): 5.46; TS MDAI hCMEC (hCMEC [1]): 1.16; TS DPH hCMEC (hCMEC [2]): 1.47
Nc1nc(CC(=O)Nc2ccc(CCNC[C@H](O)c3ccccc3)cc2)cs1 [Mirabegron] | 8.19 | 4.76 | 0.75 | 0.90 | 
CC(C)(C)NCC(O)c1cc(Cl)c(N)c(Cl)c1 (centres unmarked) [Clenbuterol] |  |  |  |  | MATE1 (uptake ratio) (MATE1): 1.11; MATE1 ratio (MATE1): 1.11; MATE2 (uptake ratio) (MATE2K): 1.18; MATE2K ratio (MATE2K): 1.18; TS MDAI hCMEC (hCMEC [1]): 0.07; TS DPH hCMEC (hCMEC [2]): 0.36
CNCCc1ccccn1 [Betahistine] | 1.90 | 1.19 | 0.86 | 0.73 | MATE1 (uptake ratio) (MATE1; [6]): 1.9; MATE2 (uptake ratio) (MATE2K; [7]): 1.19
Cc1cccc(C(C)c2cnc[nH]2)c1C (centres unmarked) [Medetomidine] | 1.11 | 1.21 | 0.96 | 0.79 | 
CC[C@@H](C(N)=O)N1CCCC1=O [Levetiracetam] | 1.19 | 1.28 | 1.19 | 1.17 | 
COc1cccc2c1C(=O)c1c(O)c3c(c(O)c1C2=O)C[C@@](O)(C(C)=O)C[C@@H]3O[C@H]1C[C@H](N)[C@H](O)[C@H](C)O1 [Daunorubicin] |  |  |  |  | MATE1 ratio (MATE1): 1.21; MATE2K ratio (MATE2K): 1.01; TS MDAI hCMEC (hCMEC [1]): 1.29; TS DPH hCMEC (hCMEC [2]): 0.86
CC(C)C(=O)Oc1ccc(CO)cc1[C@H](CCN(C(C)C)C(C)C)c1ccccc1 [Fesoterodine] | 1.09 | 1.02 | 0.41 | 0.40 | 
C[C@@H](O)[C@H]1C(=O)N2C(C(=O)O)=C(S[C@@H]3CN[C@H](C(=O)N(C)C)C3)[C@H](C)[C@H]12 [Meropenem] | 1.32 | 1.33 | 1.00 | 1.20 | 
CN1CCC[C@@H]1Cc1c[nH]c2ccc(CCS(=O)(=O)c3ccccc3)cc12 [Eletriptan] | 1.41 | 1.22 | 0.46 | 0.21 | 
O=C(O[C@H]1CN2CCC1CC2)N1CCc2ccccc2[C@@H]1c1ccccc1 [Solifenacin] | 1.28 | 1.22 | 0.44 | 0.27 | MATE1 (MATE1; [4]): 1.28; MATE2 (MATE2K; [5]): 1.22
Nc1nc2c(ncn2COCCO)c(=O)[nH]1 [Acyclovir] |  |  | 1.39 | 1.40 | 
